Results from patent US20250186391A1, “ORAL COMPLEMENT FACTOR D INHIBITORS” (BioCryst Pharmaceuticals, Inc., priority 2019, published 2025).

Biological target: Factor D (Homo sapiens (Human), UniProt P00746)
Assay: Factor D esterolytic assay
Type: biochemical
Details: Z-Lys-SBzl substrate, 100 mM HEPES, 500 mM NaCl, pH 7.5, 10% DMSO; tested a minimum of three times; read-out: Measured Ki (IC50) Value for Compounds: IC50
Outline: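 Chromogenic thioesterase read-out: Z-Lys-SBzl (1.29 mM) hydrolysis by human Factor D, thiol detected with DTNB at 405 nm (690 nm background subtracted) for 600 s. Run in 100 mM HEPES, 500 mM NaCl, pH 7.5, 10% DMSO, substrate added immediately or after room-temperature preincubation. IC50 from percent inhibition versus enzyme alone, n≥3.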

Sequence of Factor D (P00746 26-253): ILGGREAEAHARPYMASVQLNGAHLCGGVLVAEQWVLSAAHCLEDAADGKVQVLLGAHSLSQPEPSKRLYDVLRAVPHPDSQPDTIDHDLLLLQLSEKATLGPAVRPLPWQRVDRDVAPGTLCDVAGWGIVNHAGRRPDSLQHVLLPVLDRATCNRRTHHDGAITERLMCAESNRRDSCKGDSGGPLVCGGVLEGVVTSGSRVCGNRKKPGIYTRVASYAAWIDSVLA

IC50 [nM] | SMILES
< 1000 | CCCc1oc2ccc(-c3cccc(CN)c3)cc2c1COc1cc(OC)ccc1CC(=O)O [Compound 284e, 2-(2-((5-(3-(aminomethyl)phenyl)-2-propylbenzofuran-3-yl)methoxy)-4-methoxyphenyl)acetic acid]
< 1000 | CCCc1oc2ccc(-c3cccc(CN)c3)cc2c1COc1cc(C)ccc1CC(=O)O [Compound 285c, 2-(2-((5-(3-(aminomethyl)phenyl)-2-propylbenzofuran-3-yl)methoxy)-4-methylphenyl)acetic acid]
< 1000 | CCCc1oc2ccc(-c3cccc(CN)c3)cc2c1COc1ccccc1CC(=O)O [Compound 286c, 2-(2-((5-(3-(aminomethyl)phenyl)-2-propylbenzofuran-3-yl)methoxy)phenyl)acetic acid]
1000 to 10000 | NCc1cccc(-c2cc3c(COc4ccccc4CC(=O)O)ccc(C4CC4)c3o2)c1 [Compound 291g, 2-(2-((2-(3-(aminomethyl)phenyl)-7-cyclopropylbenzofuran-4-yl)methoxy)phenyl)acetic acid]
< 1000 | NCc1cccc(-c2ccc3c(c2)c(COc2ccccc2CC(=O)O)nn3C2CCCC2)c1 [Compound 292c, 2-(2-((5-(3-(aminomethyl)phenyl)-1-cyclopentyl-1H-indazol-3-yl)methoxy)phenyl)acetic acid]
< 1000 | COCCNc1cc(-c2cccc(CN)c2)cc2c(COc3ccccc3CC(=O)O)coc12 [Compound 296d, 2-(2-((5-(3-(aminomethyl)phenyl)-7-((2-methoxyethyl)amino)benzofuran-3-yl)methoxy)phenyl)acetic acid]
< 1000 | CCCc1oc2ccc(-c3cccc(CN)c3F)cc2c1COc1cc(OC)ccc1CC(=O)O [Compound 297b, 2-(2-((5-(3-(aminomethyl)-2-fluorophenyl)-2-propylbenzofuran-3-yl)methoxy)-4-methoxyphenyl)acetic acid]

Second part, the compound before the results:

SMILES | IC50 [nM]
Cc1cc2c(o1)c(-c1cccc(CN)c1)cc1c(COc3ccccc3CC(=O)O)coc12 [Compound 283g, 2-(2-((5-(3-(aminomethyl)phenyl)-7-methylbenzo[1,2-b:3,4-b′]difuran-3-yl)methoxy)phenyl)acetic acid] | < 1000
NCc1cccc(-c2cc3c(COc4ccccc4CC(=O)O)coc3c3ccoc23)c1F [Compound 287b, 2-(2-((5-(3-(aminomethyl)-2-fluorophenyl)benzo[1,2-b:3,4-b′]difuran-3-yl)methoxy)phenyl)acetic acid] | < 1000
NCc1cc(-c2cc3c(COc4ccccc4CC(=O)O)coc3c3ccoc23)ccn1 [Compound 288d, 2-(2-((5-(2-(aminomethyl)pyridin-4-yl)benzo[1,2-b:3,4-b′]difuran-3-yl)methoxy)phenyl)acetic acid] | < 1000
NCc1nccc(-c2cc3c(COc4ccccc4CC(=O)O)coc3c3ccoc23)c1F [Compound 289d, 2-(2-((5-(2-(aminomethyl)-3-fluoropyridin-4-yl)benzo[1,2-b:3,4-b′]difuran-3-yl)methoxy)phenyl)acetic acid] | < 1000
NCc1cc(-c2cc3c(COc4ccccc4CC(=O)O)cccc3o2)ccn1 [Compound 290h, 2-(2-((2-(2-(aminomethyl)pyridin-4-yl)benzofuran-4-yl)methoxy)phenyl)acetic acid] | < 1000
CC(C)n1nc(C(=O)Nc2ccccc2CC(=O)O)c2cc(-c3cccc(CN)c3)ccc21 [Compound 293c, 2-(2-(5-(3-(aminomethyl)phenyl)-1-isopropyl-1H-indazole-3-carboxamido)phenyl)acetic acid] | < 1000
NCc1cccc(-c2cc(C#CC3CC3)c3occ(COc4ccccc4CC(=O)O)c3c2)c1 [Compound 294d, 2-(2-((5-(3-(aminomethyl)phenyl)-7-(cyclopropylethynyl)benzofuran-3-yl)methoxy)phenyl)acetic acid] | < 1000
COc1ccc(CC(=O)O)c(OCc2c(C(C)C)oc3c(NCC4CC4)cc(-c4cccc(CN)c4)cc23)c1 [Compound 295h, 2-(2-((5-(3-(aminomethyl)phenyl)-7-((cyclopropylmethyl)amino)-2-isopropylbenzofuran-3-yl)methoxy)-4-methoxyphenyl)acetic acid] | < 1000
